The values that follow come from patent US10525055B2, “Opioid receptor antagonist prodrugs” (Nirsum Laboratories, Inc., priority 2017, dated 2020).

A short description of data set [1]: Plasma stability assay, dog plasma. It counts as in vitro ADME. Particulars: 37° C., 2 μM; for % remaining at time point in minutes, 15 min: 15 min (as headed); for % remaining at time point in minutes, 120 min: 120 min (as headed); for % remaining at time point in minutes, 480 min: 480 min (as headed); for % remaining at time point in minutes, 1440 min: 1440 min (as headed). As to the method: (§1) Plasma stability determination of the test compounds in rat, dog, cynomolgus monkey and human plasma is performed using HPLC-MS. For rat, incubations are carried out in 96-well polypropylene plates in 5 aliquots of 70 μL each (one for each time point). […] Five time points are analyzed (0, 15, 120, 480 and 1440 min). […] All incubations are performed in duplicates. The samples are analyzed by HPLC-MS. The percentage of parent compound remaining after incubation in plasma is determined.

Data set [2] is described as follows: Rat pharmacokinetic studies, intramuscular. It counts as in vivo, male Sprague Dawley Rats. Conditions: rat IM. On the procedure:
The purpose of this study is to determine the pharmacokinetics of test compounds in plasma, following intramuscular administration to male Sprague Dawley Rats (n=3, unless otherwise specified).
The dose formulation of 400 mg base equivalents/ml in sesame oil+1% benzyl alcohol (unless otherwise specified) was administered by intramuscular injection. The dose volume was determined by the animals' body weight determined on the morning of dosing day.
Each collected blood sample was centrifuged for 4 minutes at 4° C. and 10000 rpm for plasma collection. Plasma was collected and transferred into a pre-labeled PP tube in dry ice at each time point and precipitated immediately using ACN at a ratio of 1:4 (plasma:ACN). Centrifuged again (10 minutes, 12000 rpm) and obtain the supernatant.
After terminal collection, all supernatant was stored at approximately −80° C. until bioanalysis.
LC-MS/MS methods for the quantitative determination of test compound in biological matrix were developed. […] The sample analysis was performed concurrently with a set of calibration standards and two sets of QC samples using the LC-MS/MS method.
Plasma concentration versus time data was analyzed by non-compartmental approaches using the Phoenix WinNonlin 6.3 software program. Cmax, Tmax, T1/2, AUC(0-t), AUC(0-inf), MRT(0-t), MRT(0-inf) and graphs of plasma concentration versus time profile were prepared.

Data set [3] is described as follows: Solubility determination in oil (cottonseed oil, sesame oil). Particulars: heating temp. 60 °C. As to the method: A known amount of test substance (˜40 mg) was weighed into the vial, 100 μL of oil was added and heated to 60° C. and then system was slurried to reach equilibrium. […] Extra oil was added into the vial once compound precipitated out and then the system was re-equilibrated at 1000 rpm at room temperature (25° C.). Final concentration was determined by HPLC method as described below in Table 6a and 6b.

Data set [4] can be described thus: Liver S9 fraction stability, monkey. It counts as in vitro ADME, cynomolgus monkey. Particulars: 1.0 mg/ml S9 protein, 2 μM, 37° C. As to the method:
(§2) Liver S9 fraction stability determination of the test compounds in dog, cynomolgus monkey and human is performed using HPLC-MS. Test compound (2 μM, 0.1% DMSO, 1% Methanol final concentration) was assessed for stability in a 50 μl phosphate buffer containing 1.0 mg/ml S9 protein from each of the three species and 5 mM D-saccharic acid-1, 4-lactone. Samples were incubated at 37° C. for 60 minutes and the % compound remaining was assessed.

Data set [5] is described as follows: Dog pharmacokinetic studies, deep intramuscular. Particulars: dog IM, Sesame oil + 1% Benzyl Alcohol. It counts as in vivo, Beagle dogs.
A short description of data set [6]: Plasma stability assay, monkey plasma. Particulars: 37° C., 2 μM; for % remaining at time point in minutes, 15 min: 15 min (as headed); for % remaining at time point in minutes, 120 min: 120 min (as headed); for % remaining at time point in minutes, 480 min: 480 min (as headed); for % remaining at time point in minutes, 1440 min: 1440 min (as headed). The class given is in vitro ADME, cynomolgus monkey. As to the method:
as §1

Data set [7] is described as follows: Plasma stability assay, rat plasma. The class given is in vitro ADME. Particulars: 37° C., 10 μM.
Data set [8] in a line: Liver S9 fraction stability, human. The class given is in vitro ADME. Particulars: 1.0 mg/ml S9 protein, 2 μM, 37° C. As to the method:
as §2

The target of data set [9] is T1, MOR (Homo sapiens, UniProt P35372).
T1 construct: expressed in transfected cells; membranes prepared from them
T1 sequence (P35372 whole entry): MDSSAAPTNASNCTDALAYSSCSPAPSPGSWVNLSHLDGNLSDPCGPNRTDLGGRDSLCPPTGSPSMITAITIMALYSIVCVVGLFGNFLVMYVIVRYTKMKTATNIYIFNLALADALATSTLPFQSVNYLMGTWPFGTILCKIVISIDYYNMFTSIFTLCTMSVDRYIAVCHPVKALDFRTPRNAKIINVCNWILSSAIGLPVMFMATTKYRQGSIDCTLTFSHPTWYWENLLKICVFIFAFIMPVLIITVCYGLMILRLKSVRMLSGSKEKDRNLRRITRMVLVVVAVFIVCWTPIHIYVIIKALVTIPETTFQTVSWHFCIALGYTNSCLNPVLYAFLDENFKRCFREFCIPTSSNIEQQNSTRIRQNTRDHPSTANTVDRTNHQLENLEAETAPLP
As to the kind of experiment: Opioid receptor binding assay, MOR ([3H]DAMGO). Particulars: MOR, MaxDose 10000 nM.

A short description of data set [10]: Liver S9 fraction stability, dog. The class given is in vitro ADME. Conditions: 1.0 mg/ml S9 protein, 2 μM, 37° C. On the procedure:
as §2

Data set [11] in a line: Plasma stability assay, human plasma. The class given is in vitro ADME. Particulars: 37° C., 2 μM; for % remaining at time point in minutes, 15 min: 15 min (as headed); for % remaining at time point in minutes, 120 min: 120 min (as headed); for % remaining at time point in minutes, 480 min: 480 min (as headed); for % remaining at time point in minutes, 1440 min: 1440 min (as headed). On the procedure: as §1

The target of data set [12] is T2, KOR (Homo sapiens, UniProt P41145).
T2 construct: expressed in transfected cells; membranes prepared from them
T2 sequence (P41145 whole entry): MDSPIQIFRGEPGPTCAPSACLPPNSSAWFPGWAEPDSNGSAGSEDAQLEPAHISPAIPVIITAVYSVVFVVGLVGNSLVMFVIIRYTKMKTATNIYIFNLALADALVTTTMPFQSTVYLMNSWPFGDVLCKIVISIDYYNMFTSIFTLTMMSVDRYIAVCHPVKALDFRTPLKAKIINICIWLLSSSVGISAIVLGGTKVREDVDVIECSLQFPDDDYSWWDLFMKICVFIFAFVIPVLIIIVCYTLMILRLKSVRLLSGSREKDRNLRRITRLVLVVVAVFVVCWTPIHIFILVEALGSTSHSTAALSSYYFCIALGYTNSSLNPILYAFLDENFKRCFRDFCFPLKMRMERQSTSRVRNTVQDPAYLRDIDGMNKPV
Kind of data set: Opioid receptor binding assay, KOR ([3H]Diprenorphine). Particulars: KOR, MaxDose 10000 nM.

The target of data set [13] is T3, DOR (Homo sapiens, UniProt P41143).
T3 construct: expressed in transfected cells; membranes prepared from them
T3 sequence (P41143 whole entry): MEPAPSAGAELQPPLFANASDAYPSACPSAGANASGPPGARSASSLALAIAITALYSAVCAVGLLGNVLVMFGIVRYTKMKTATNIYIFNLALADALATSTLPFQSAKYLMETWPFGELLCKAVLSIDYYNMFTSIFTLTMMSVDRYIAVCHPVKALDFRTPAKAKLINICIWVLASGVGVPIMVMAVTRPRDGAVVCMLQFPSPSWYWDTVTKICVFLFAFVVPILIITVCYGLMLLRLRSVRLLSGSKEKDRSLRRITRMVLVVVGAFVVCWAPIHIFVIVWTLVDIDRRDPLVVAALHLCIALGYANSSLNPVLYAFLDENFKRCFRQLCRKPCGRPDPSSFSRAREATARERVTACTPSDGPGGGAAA
Kind of data set: Opioid receptor binding assay, DOR ([3H]-DADLE). Particulars: DOR, MaxDose 10000 nM.

Data set [14] is described as follows: Equilibrium solubility in water. Particulars: obs. temp. 40 °C.
[15] abbreviates: 80 mg/kg, Sesame oil + 1% Benzyl Alcohol.
Where [16] appears, read: 123 mg/kg, Sesame oil + 1% Benzyl Alcohol.
The mark [17] stands for this setting: 165 mg/kg, Sesame oil + 1% Benzyl Alcohol.
Setting [18] is: 80 mg/kg, Cottonseed + 1% Benzyl Alcohol.
Setting [19] is: 123 mg/kg, Cottonseed oil + 1% Benzyl Alcohol.

For the compound `C=C1CC[C@@]2(O)C3Cc4ccc(OC(=O)OCCCCCCCCCCCC)c5c4[C@@]2(CCN3CC2CC2)[C@H]1O5` [Compound 6, (4aS,7aS,12bS)-3-(cyclopropylmethyl)-4a-hydroxy-7-methylene-2,3,4,4a,5,6,7,7a-octahydro-1H-4,12-methanobenzofuro[3,2-e]isoquinolin-9-yl dodecyl carbonate], the “% remaining at time point in minutes, 0 min” value in [1], in data set [6], in [7] and in data set [11] was 100% each time. The “% remaining at time point in minutes, 15 min” value turned out to be 89.1% in data set [1], 88.7% in data set [6], 31.3% in [7] and 97.6% in data set [11]. The “% remaining at time point in minutes, 120 min” value in [1] is 96.9%; in data set [6], 74.3%; in [7], 7.6%; in data set [11], 102%. The “% remaining at time point in minutes, 480 min” value is 107.2% in [1], 68.4% in data set [6], 4% in [7] and 109.8% in data set [11]. In addition, the “% remaining at time point in minutes, 1440 min” value in data set [1] was 101.2%; in data set [6], 70.1%; in data set [7], 1.6%; in data set [11], 115.1%. For the same compound, the “AUC0-inf (ng · h/mL) prodrug” value in data set [2] (setting [15]) was 78.9 ng·h/mL; in data set [2] (setting [16]) it was 620 ng·h/mL; in data set [2] (setting [17]), 637 ng·h/mL; in data set [5] (30 mg/kg), 398 ng·h/mL; in data set [5] (96 mg/kg), 1290 ng·h/mL. In addition, the “Half-life t1/2 (hour) prodrug” value in data set [2] (setting [15]) worked out at 340 h; in [2] (setting [16]) it was 213 h; in data set [2] (setting [17]), 204 h; in [5] (30 mg/kg) it was 95 h; in data set [5] (96 mg/kg), 88 h. The “Approximate Solubility (mg/mL) in Excipient: Cottonseed oil” value in data set [3] (obs. temp. 25 °C) is listed as more than 397 mg/mL. Moreover, the “Approximate Solubility (mg/mL) in Excipient: Sesame oil” value (“Approximate Solubility … Sesame oil” below) in data set [3] (obs. temp. 25 °C) is reported as more than 386 mg/mL. In data set [4], the “Liver S9 Fraction Stability % remaining at 60 minutes, Monkey” value is listed as 0%. Further, the “Liver S9 Fraction Stability % remaining at 60 minutes, Human” value in [8] stood at 5.3%. Besides, the “%Inh@MaxDose” value in data set [9] is given as 102.5%; in data set [12] it was 99.6%. The “Liver S9 Fraction Stability % remaining at 60 minutes, Dog” value in [10] came out at 17.1%.

Turning to `C=C1CC[C@@]2(O)C3Cc4ccc(OCOC(=O)OCCCCCCCCCCCC)c5c4[C@@]2(CCN3CC2CC2)[C@H]1O5` [Compound 24, (((4aS,7aS,12bS)-3-(cyclopropylmethyl)-4a-hydroxy-7-methylene-2,3,4,4a,5,6,7,7a-octahydro-1H-4,12-methanobenzofuro[3,2-e]isoquinolin-9-yl)oxy)methyl dodecyl carbonate], the “% remaining at time point in minutes, 0 min” value in [1], in data set [6], in [7] and in [11] was 100% throughout. Also, the “% remaining at time point in minutes, 15 min” value in [1] is recorded as 94.7%; in [6], 90.7%; in data set [7] it was 32%; in [11], 94%. The “% remaining at time point in minutes, 120 min” value in data set [1] was determined as 104.5%; in data set [6] it was 93.5%; in data set [7], 11.8%; in [11] it was 102.3%. Besides, the “% remaining at time point in minutes, 480 min” value turned out to be 115.7% in data set [1], 96.2% in data set [6], 8.2% in data set [7] and 105.3% in data set [11]. The “% remaining at time point in minutes, 1440 min” value in [1] was 116.2%; in data set [6], 97.8%; in [7], 3%; in [11], 112.5%. The “AUC0-inf (ng · h/mL) prodrug” value stood at 147 ng·h/mL in [2] (setting [18]); 547 ng·h/mL in data set [2] (setting [19]); 453 ng·h/mL in [2] (165 mg/kg, Cottonseed oil + 1% Benzyl Alcohol). Besides, the “Half-life t1/2 (hour) prodrug” value in data set [2] (setting [18]) turned out to be 398 h; in data set [2] (setting [19]), 717 h. For the same compound, the “Liver S9 Fraction Stability % remaining at 60 minutes, Monkey” value in [4] was determined as 3%. Moreover, the “Liver S9 Fraction Stability % remaining at 60 minutes, Human” value in data set [8] amounted to 3.5%. For the same compound, the “%Inh@MaxDose” value in [13] amounted to 48%; in data set [9], 88.7%; in data set [12] it was 82.9%. The “Liver S9 Fraction Stability % remaining at 60 minutes, Dog” value in [10] was found to be 3.6%.

For `C=C1CC[C@@]2(O)C3Cc4ccc(OC(=O)CCCCCCCCCCCCCCCCC)c5c4[C@@]2(CCN3CC2CC2)[C@H]1O5` [Compound 12, (4aS,7aS,12bS)-3-(cyclopropylmethyl)-4a-hydroxy-7-methylene-2,3,4,4a,5,6,7,7a-octahydro-1H-4,12-methanobenzofuro[3,2-e]isoquinolin-9-yl stearate], the figures for the “Approximate Solubility … Sesame oil” value in [3] (obs. temp. 25 °C) and in [3] (obs. temp. 40 °C) were less than 50 mg/mL and more than 411.1 mg/mL, respectively. Moreover, in [14] (heating temp. 40 °C), the “Equilibrium solubility (mg/mL) Water” value is given as 0.026 mg/mL.

For the compound `C=C1CC[C@@]2(O)[C@H]3Cc4ccc(O)c5c4[C@@]2(CCN3CC2CC2)[C@H]1O5` [61 (Nalmefene)], in [3] (obs. temp. 40 °C), the “Approximate Solubility (mg/mL) in Excipient: Cottonseed oil” value was less than 25.0 mg/mL and the “Approximate Solubility … Sesame oil” value is less than 25.5 mg/mL. Also, in data set [3] (Ethanol, obs. temp. 40 °C), the “Approximate Solubility (mg/mL) in Excipient: Ethanol” value is 102 to 137 mg/mL. Besides, the “Equilibrium solubility (mg/mL) Water” value in [14] (heating temp. 60 °C) was 0.025 mg/mL.

With `O=C(CCC1CCCC1)Oc1ccc2c3c1O[C@H]1C(=O)CC[C@@]4(O)C(C2)N(CC2CC2)CC[C@]314` [Compound 43, (4aS,7aR,12bS)-3-(cyclopropylmethyl)-4a-hydroxy-7-oxo-2,3,4,4a,5,6,7,7a-octahydro-1H-4,12-methanobenzofuro[3,2-e]isoquinolin-9-yl 3-cyclopentylpropanoate], the “Equilibrium solubility (mg/mL) Water” value in [14] (heating temp. 40 °C) stood at 0.048 mg/mL.
